Assay results taken from ChEMBL document CHEMBL2062380, “Discovery of a novel pyrrole derivative 1-[5-(2-fluorophenyl)-1-(pyridin-3-ylsulfonyl)-1H-pyrrol-3-yl]-N-methylmethanamine fumarate (TAK-438) as a potassium-competitive acid blocker (P-CAB)” (J Med Chem, 2012).
pIC50: −log10 of the molar value. Counter-ions that a name gives are not always drawn. Calls of active or inactive are those of the source. The calls are words filed in the database; no cut-off is given here.

Key:
[1] = Inhibition of swine H+/K+-ATPase after 30 mins by colorimetry; set-up: species or system Sus scrofa
Rattus norvegicus [2] = test: Inhibition of histamine-induced gastric acid secretion in pylorus-ligated Sprague Dawley rat at 1 mg/kg, iv administered 3 mins prior to histamine challenge measured after 3 hrs; assay type: functional; conditions: Stomach
[3] = Lipophilicity, log D of compound at pH 7.4; assay type: physicochemical; conditions: buffer
Rattus norvegicus [4] = test: Inhibition of histamine-induced gastric acid secretion in pylorus-ligated Sprague-Dawley rat at 8 mg/kg, po measured after 3 hrs post histamine challenge; assay type: functional, organism-based; set-up: dose 8 mg/kg; conditions: Stomach
Canis familiaris [5] = test: Inhibition histamine-induced gastric acid secretion in Heidenhain-pouch dog at 1 mg/kg, po administered 1 tp 48 hrs prior histamine challenge measured for 3 consecutive 30 mins time period after compound dosing; assay type: functional, organism-based; set-up: dose 1 mg/kg; conditions: Canis lupus familiaris, Stomach
Rattus norvegicus [6] = test: Inhibition of histamine-induced gastric acid secretion in po dosed pylorus-ligated Sprague-Dawley rat measured after 3 hrs post histamine challenge; assay type: functional, organism-based; conditions: Stomach
Canis familiaris [7] = test: Inhibition histamine-induced gastric acid secretion in Heidenhain-pouch dog at 1 mg/kg, po measured after 2 days; assay type: functional, organism-based; set-up: dose 1 mg/kg; conditions: Canis lupus familiaris, Stomach
Rattus norvegicus [8] = test: Complete inhibition of histamine-induced gastric acid secretion in pylorus-ligated Sprague Dawley rat at 4 mg/kg, po measured after 3 hrs post histamine challenge; assay type: functional, organism-based; set-up: dose 4 mg/kg; conditions: Stomach
Canis familiaris [9] = test: Inhibition histamine-induced gastric acid secretion in Heidenhain-pouch dog at 1 mg/kg, po administered 1 day post histamine challenge measured for 3 consecutive 30 mins time period after compound dosing; assay type: functional, organism-based; set-up: dose 1 mg/kg; conditions: Canis lupus familiaris, Stomach

Row | Structure (SMILES) | pIC50 [1] | inhibition in vivo at 1 mg/kg (Rattus norvegicus [2]) [%] | logD [3] | further results
1 | CNCc1cc(-c2ccccc2)n(S(=O)(=O)c2cccc(S(C)(=O)=O)c2)c1 | 7.11 |  |  | 
2 | CNCc1cc(-c2ccccc2)n(S(=O)(=O)c2ccccn2)c1 | 6.77 |  |  | 
3 | CNCc1cc(-c2cccc(F)c2)n(S(=O)(=O)c2cccnc2)c1 | 7.70 | 92 | 1 | 
4 | CNCc1cc(-c2ccccc2C#N)n(S(=O)(=O)c2cccnc2)c1 | 6.64 | 68 | -0.2 | 
5 | CNCc1cc(-c2ccccc2C)n(S(=O)(=O)c2cccnc2)c1 | 7.34 | 95 | 1 | 
6 | Cc1c(OCC(F)(F)F)ccnc1C[S+]([O-])c1nc2ccccc2[nH]1 (stereo not drawn) |  |  |  | inhibition (Rattus norvegicus [4]): inactive; inhibition (Canis familiaris [5]): Active
7 | CNCc1cc(-c2ccccc2)n(S(=O)(=O)c2ccc(C#N)nc2)c1 | 6.96 | 17 | 1.4 | 
8 | CNCc1cc(-c2ccccc2)n(S(=O)(=O)c2ccc(C)nc2)c1 | 7.47 | 83 | 1 | 
9 | CNCc1cc(-c2ccccc2)n(S(=O)(=O)c2cccs2)c1 | 7.29 | 69 | 1.2 | 
10 | CNCc1cc(-c2ccccc2)n(S(=O)(=O)c2ccsc2)c1 | 7.80 | 55 | 1.1 | 
11 | CNCc1cc(-c2ccccc2)n(S(=O)(=O)c2cccnc2)c1 | 7.80 | 85 | 0.7 | 
12 | CNCc1cc(-c2ccccc2)n(S(=O)(=O)c2cccc(OC)c2)c1 | 7.96 |  |  | 
13 | CNCc1cc(-c2ccccc2)n(S(=O)(=O)c2ccc(OC)nc2)c1 | 7.89 | 95 | 1.7 | 
14 | CNCc1cc(-c2ccccc2Cl)n(S(=O)(=O)c2cccnc2)c1 | 7.77 | 97 | 0.7 | 
15 | CNCc1cc(-c2ccccc2)n(S(=O)(=O)c2ccc(OC)cc2)c1 | 7.52 | 95 | 1.5 | 
16 | CNCc1cc(-c2ccc(F)cc2)n(S(=O)(=O)c2cccnc2)c1 | 7.34 | 85 | 1 | 
17 | CNCc1cc(-c2ccccc2C(F)(F)F)n(S(=O)(=O)c2cccnc2)c1 | 7.12 | 92 | 0.8 | 
18 | CNCc1cc(-c2ccccc2CO)n(S(=O)(=O)c2cccnc2)c1 | 5.66 |  | -0.3 | 
19 | CNCc1cc(-c2ccccc2F)n(S(=O)(=O)c2cccnc2)c1 [VONOPRAZAN FUMARATE] | 7.72 | 98 | 0.4 | inhibition (Rattus norvegicus [6]): Dose-dependent effect; inhibition (Canis familiaris [7]): Active; inhibition (Rattus norvegicus [8]): Active; inhibition (Canis familiaris [9]): Active
